Source: patent US20080039422A1, “Vitamin B12-Containing Compositions and Methods of Use” (Transition Therapeutics Inc., priority 2004, published 2008)

Assay: Hydroxocobalamin-containing solutions
Format: physicochemical
Protocol: A variety of solutions containing hydroxocobalamin (HO-Cbl) were tested. The excipients tested in these studies were the same as those used above: (a) 15% ethanol; (b) 20% ethanol; (c) 20% propylene glycol; (d) 40% propylene glycol; (e) 15% ethanol and 20% propylene glycol; and (f) 20% ethanol and 40% propylene glycol. Here, however, three challenge amounts were tested (˜16, 40, and 81 mg/ml HO-Cbl) and the time course was slightly longer, with measurements being made on Day 3 and Day 5. The OH-Cbl was solubilized at room temperature, as it dissolved readily in the excipients tested. If necessary or desired, the solutions can be mixed by shaking briefly (using, for example, a vortex or other agitation for a few seconds (e.g., 5-20 seconds) to a minute or so (e.g., 1-3 minutes). Following suitable dilution, the absorbance at […] was measured.

C/C1=C2/[N-][C@H]([C@H](CC(N)=O)[C@@]2(C)CCC(=O)NC[C@@H](C)OP(=O)([O-])O[C@H]2[C@@H](O)[C@@H](n3cnc4cc(C)c(C)cc43)O[C@@H]2CO)[C@]2(C)N=C(/C(C)=C3N=C(/C=C4N=C1[C@@H](CCC(N)=O)C\4(C)C)[C@@H](CCC(N)=O)[C@]\3(C)CC(N)=O)[C@@H](CCC(N)=O)[C@]2(C)CC(N)=O.[Co+3].[OH-] [OH-Cbl, hydroxocobalamin]
concentrations of HO-Cbl versus control (water) values (any of the solutions tested, any of the three challenge amounts): did not substantially exceed control values
Conc of OH-Cbl (challenge 16.18 mg/mL, ethanol 0%, PG 0%, Day 0): 0.00 mg/mL
Conc of OH-Cbl (challenge 16.18 mg/mL, ethanol 0%, PG 0%, Day 3): 16.83 mg/mL
Conc of OH-Cbl (challenge 16.18 mg/mL, ethanol 0%, PG 0%, Day 5): 16.93 mg/mL
Conc of OH-Cbl (challenge 16.18 mg/mL, ethanol 0%, PG 20%, Day 0): 0.00 mg/mL
Conc of OH-Cbl (challenge 16.18 mg/mL, ethanol 0%, PG 20%, Day 3): 17.10 mg/mL
Conc of OH-Cbl (challenge 16.18 mg/mL, ethanol 0%, PG 20%, Day 5): 17.31 mg/mL
Conc of OH-Cbl (challenge 16.18 mg/mL, ethanol 0%, PG 40%, Day 0): 0.00 mg/mL
Conc of OH-Cbl (challenge 16.18 mg/mL, ethanol 0%, PG 40%, Day 3): 16.78 mg/mL
Conc of OH-Cbl (challenge 16.18 mg/mL, ethanol 0%, PG 40%, Day 5): 17.10 mg/mL
Conc of OH-Cbl (challenge 16.18 mg/mL, ethanol 15%, PG 0%, Day 0): 0.00 mg/mL
Conc of OH-Cbl (challenge 16.18 mg/mL, ethanol 15%, PG 0%, Day 3): 16.67 mg/mL
Conc of OH-Cbl (challenge 16.18 mg/mL, ethanol 15%, PG 0%, Day 5): 17.06 mg/mL
Conc of OH-Cbl (challenge 16.18 mg/mL, ethanol 15%, PG 20%, Day 0): 0.00 mg/mL
Conc of OH-Cbl (challenge 16.18 mg/mL, ethanol 15%, PG 20%, Day 3): 16.94 mg/mL
Conc of OH-Cbl (challenge 16.18 mg/mL, ethanol 15%, PG 20%, Day 5): 17.44 mg/mL
Conc of OH-Cbl (challenge 16.18 mg/mL, ethanol 20%, PG 0%, Day 0): 0.00 mg/mL
Conc of OH-Cbl (challenge 16.18 mg/mL, ethanol 20%, PG 0%, Day 3): 17.05 mg/mL
Conc of OH-Cbl (challenge 16.18 mg/mL, ethanol 20%, PG 0%, Day 5): 17.14 mg/mL
Conc of OH-Cbl (challenge 16.18 mg/mL, ethanol 20%, PG 40%, Day 0): 0.00 mg/mL
Conc of OH-Cbl (challenge 16.18 mg/mL, ethanol 20%, PG 40%, Day 3): 16.25 mg/mL
Conc of OH-Cbl (challenge 16.18 mg/mL, ethanol 20%, PG 40%, Day 5): 16.59 mg/mL
Conc of OH-Cbl (challenge 40.45 mg/mL, ethanol 0%, PG 0%, Day 0): 0.00 mg/mL
Conc of OH-Cbl (challenge 40.45 mg/mL, ethanol 0%, PG 0%, Day 3): 41.90 mg/mL
Conc of OH-Cbl (challenge 40.45 mg/mL, ethanol 0%, PG 0%, Day 5): 41.68 mg/mL
Conc of OH-Cbl (challenge 40.45 mg/mL, ethanol 0%, PG 20%, Day 0): 0.00 mg/mL
Conc of OH-Cbl (challenge 40.45 mg/mL, ethanol 0%, PG 20%, Day 3): 41.68 mg/mL
Conc of OH-Cbl (challenge 40.45 mg/mL, ethanol 0%, PG 20%, Day 5): 41.47 mg/mL
Conc of OH-Cbl (challenge 40.45 mg/mL, ethanol 0%, PG 40%, Day 0): 0.00 mg/mL
Conc of OH-Cbl (challenge 40.45 mg/mL, ethanol 0%, PG 40%, Day 3): 41.79 mg/mL
Conc of OH-Cbl (challenge 40.45 mg/mL, ethanol 0%, PG 40%, Day 5): 41.79 mg/mL
Conc of OH-Cbl (challenge 40.45 mg/mL, ethanol 15%, PG 0%, Day 0): 0.00 mg/mL
Conc of OH-Cbl (challenge 40.45 mg/mL, ethanol 15%, PG 0%, Day 3): 41.15 mg/mL
Conc of OH-Cbl (challenge 40.45 mg/mL, ethanol 15%, PG 0%, Day 5): 41.47 mg/mL
Conc of OH-Cbl (challenge 40.45 mg/mL, ethanol 15%, PG 20%, Day 0): 0.00 mg/mL
Conc of OH-Cbl (challenge 40.45 mg/mL, ethanol 15%, PG 20%, Day 3): 41.04 mg/mL
Conc of OH-Cbl (challenge 40.45 mg/mL, ethanol 15%, PG 20%, Day 5): 42.22 mg/mL
Conc of OH-Cbl (challenge 40.45 mg/mL, ethanol 20%, PG 0%, Day 0): 0.00 mg/mL
Conc of OH-Cbl (challenge 40.45 mg/mL, ethanol 20%, PG 0%, Day 3): 41.58 mg/mL
Conc of OH-Cbl (challenge 40.45 mg/mL, ethanol 20%, PG 0%, Day 5): 41.04 mg/mL
Conc of OH-Cbl (challenge 40.45 mg/mL, ethanol 20%, PG 40%, Day 0): 0.00 mg/mL
Conc of OH-Cbl (challenge 40.45 mg/mL, ethanol 20%, PG 40%, Day 3): 41.36 mg/mL
Conc of OH-Cbl (challenge 40.45 mg/mL, ethanol 20%, PG 40%, Day 5): 41.58 mg/mL
Conc of OH-Cbl (challenge 80.90 mg/mL, ethanol 0%, PG 0%, Day 0): 0.00 mg/mL
Conc of OH-Cbl (challenge 80.90 mg/mL, ethanol 0%, PG 0%, Day 3): 81.02 mg/mL
Conc of OH-Cbl (challenge 80.90 mg/mL, ethanol 0%, PG 0%, Day 5): 80.80 mg/mL
Conc of OH-Cbl (challenge 80.90 mg/mL, ethanol 0%, PG 20%, Day 0): 0.00 mg/mL
Conc of OH-Cbl (challenge 80.90 mg/mL, ethanol 0%, PG 20%, Day 3): 83.80 mg/mL
Conc of OH-Cbl (challenge 80.90 mg/mL, ethanol 0%, PG 20%, Day 5): 82.09 mg/mL
Conc of OH-Cbl (challenge 80.90 mg/mL, ethanol 0%, PG 40%, Day 0): 0.00 mg/mL
Conc of OH-Cbl (challenge 80.90 mg/mL, ethanol 0%, PG 40%, Day 3): 81.87 mg/mL
Conc of OH-Cbl (challenge 80.90 mg/mL, ethanol 0%, PG 40%, Day 5): 82.73 mg/mL
Conc of OH-Cbl (challenge 80.90 mg/mL, ethanol 15%, PG 0%, Day 0): 0.00 mg/mL
Conc of OH-Cbl (challenge 80.90 mg/mL, ethanol 15%, PG 0%, Day 3): 82.73 mg/mL
Conc of OH-Cbl (challenge 80.90 mg/mL, ethanol 15%, PG 0%, Day 5): 82.94 mg/mL
Conc of OH-Cbl (challenge 80.90 mg/mL, ethanol 15%, PG 20%, Day 0): 0.00 mg/mL
Conc of OH-Cbl (challenge 80.90 mg/mL, ethanol 15%, PG 20%, Day 3): 81.23 mg/mL
Conc of OH-Cbl (challenge 80.90 mg/mL, ethanol 15%, PG 20%, Day 5): 80.16 mg/mL
Conc of OH-Cbl (challenge 80.90 mg/mL, ethanol 20%, PG 0%, Day 0): 0.00 mg/mL
Conc of OH-Cbl (challenge 80.90 mg/mL, ethanol 20%, PG 0%, Day 3): 82.09 mg/mL
Conc of OH-Cbl (challenge 80.90 mg/mL, ethanol 20%, PG 0%, Day 5): 80.59 mg/mL
Conc of OH-Cbl (challenge 80.90 mg/mL, ethanol 20%, PG 40%, Day 0): 0.00 mg/mL
Conc of OH-Cbl (challenge 80.90 mg/mL, ethanol 20%, PG 40%, Day 3): 82.94 mg/mL
Conc of OH-Cbl (challenge 80.90 mg/mL, ethanol 20%, PG 40%, Day 5): 82.73 mg/mL
